Measured values taken from patent US9616129B2, “Compositions and methods for potentiating immune response, enhancing immunotherapy, and increasing vaccine potency” (Nitor Therapeutics, priority 2013, dated 2017).

Key:
Format in all cases: cell-based
human TLR7 = target: T1, human TLR7 (Homo sapiens, UniProt Q9NYK1); experiment: TLR ligand screening, NF-κB SEAP reporter in HEK293 cells expressing TLR7; settings: one concentration: NTR001 10 uM, Inosine 100 uM; FIG. 2
T1 construct: expressed in transfected cells; host or cells: HEK293
T1 sequence (Q9NYK1 27-1049): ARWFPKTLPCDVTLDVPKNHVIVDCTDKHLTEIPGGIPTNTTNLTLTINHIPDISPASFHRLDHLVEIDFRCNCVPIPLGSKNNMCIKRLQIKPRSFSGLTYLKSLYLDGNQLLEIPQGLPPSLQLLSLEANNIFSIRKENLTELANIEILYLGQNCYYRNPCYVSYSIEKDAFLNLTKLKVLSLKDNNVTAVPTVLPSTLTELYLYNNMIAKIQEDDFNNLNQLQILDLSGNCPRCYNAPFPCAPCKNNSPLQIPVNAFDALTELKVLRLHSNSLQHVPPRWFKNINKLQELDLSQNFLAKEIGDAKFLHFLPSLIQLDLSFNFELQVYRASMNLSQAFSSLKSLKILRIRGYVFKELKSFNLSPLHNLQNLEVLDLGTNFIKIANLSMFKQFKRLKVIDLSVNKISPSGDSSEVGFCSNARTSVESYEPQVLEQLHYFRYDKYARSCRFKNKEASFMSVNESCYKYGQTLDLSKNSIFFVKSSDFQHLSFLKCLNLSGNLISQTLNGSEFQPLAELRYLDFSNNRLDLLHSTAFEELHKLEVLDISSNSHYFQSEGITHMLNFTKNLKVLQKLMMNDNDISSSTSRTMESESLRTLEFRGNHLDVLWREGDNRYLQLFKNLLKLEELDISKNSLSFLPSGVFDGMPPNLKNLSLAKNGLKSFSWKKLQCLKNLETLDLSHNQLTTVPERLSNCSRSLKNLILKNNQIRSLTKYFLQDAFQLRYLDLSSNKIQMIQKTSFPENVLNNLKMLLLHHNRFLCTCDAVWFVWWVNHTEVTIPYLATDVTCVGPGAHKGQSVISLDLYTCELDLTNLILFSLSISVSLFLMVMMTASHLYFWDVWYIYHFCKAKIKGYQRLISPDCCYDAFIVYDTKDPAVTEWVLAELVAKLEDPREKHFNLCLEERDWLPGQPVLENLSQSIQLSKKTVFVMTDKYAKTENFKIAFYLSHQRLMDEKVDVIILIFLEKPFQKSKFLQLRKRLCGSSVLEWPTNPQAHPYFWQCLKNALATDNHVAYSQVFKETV
Experimental: (§1) TLR stimulation is tested by assessing NF-κB activation in HEK293 cells expressing a given TLR. The Secreted Embryonic Alkaline Phosphatase (SEAP) reporter is under the control of a promoter inducible by the transcription factor NF-κB. This reporter gene allows the monitoring of signaling through the TLR, based on the activation of NF-κB. The compounds are evaluated at one concentration and compared to control ligands. This step is performed in triplicate.

human TLR2 = target: T2, human TLR2 (Homo sapiens, UniProt O60603); experiment: TLR ligand screening, NF-κB SEAP reporter in HEK293 cells expressing TLR2; settings: one concentration: Guanosine 100 uM, NTR001 10 uM, Inosine 100 uM; FIG. 2
T2 construct: expressed in transfected cells; host or cells: HEK293
T2 sequence (O60603 21-784): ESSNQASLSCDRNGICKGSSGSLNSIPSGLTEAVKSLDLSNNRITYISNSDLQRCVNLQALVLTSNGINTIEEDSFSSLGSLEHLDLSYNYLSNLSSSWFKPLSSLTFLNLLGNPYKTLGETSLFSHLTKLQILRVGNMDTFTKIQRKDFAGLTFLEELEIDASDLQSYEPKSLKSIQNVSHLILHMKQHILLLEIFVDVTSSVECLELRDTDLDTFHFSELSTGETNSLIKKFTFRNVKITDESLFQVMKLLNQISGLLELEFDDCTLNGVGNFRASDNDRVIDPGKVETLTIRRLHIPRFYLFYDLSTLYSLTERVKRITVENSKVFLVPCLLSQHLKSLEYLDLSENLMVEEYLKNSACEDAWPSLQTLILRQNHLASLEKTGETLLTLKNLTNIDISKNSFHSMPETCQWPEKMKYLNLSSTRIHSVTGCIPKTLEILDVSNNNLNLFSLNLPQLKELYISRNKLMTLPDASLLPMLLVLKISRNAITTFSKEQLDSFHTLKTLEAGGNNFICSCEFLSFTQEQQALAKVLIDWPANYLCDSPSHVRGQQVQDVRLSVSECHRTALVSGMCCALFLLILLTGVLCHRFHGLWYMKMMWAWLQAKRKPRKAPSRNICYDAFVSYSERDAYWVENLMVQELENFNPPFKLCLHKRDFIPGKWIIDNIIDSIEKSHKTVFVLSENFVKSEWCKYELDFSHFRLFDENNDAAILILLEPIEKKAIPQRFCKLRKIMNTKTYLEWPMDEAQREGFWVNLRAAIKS
Experimental: as §1

human TLR4 = target: T3, human TLR4 (Homo sapiens, UniProt O00206); experiment: TLR ligand screening, NF-κB SEAP reporter in HEK293 cells expressing TLR4; settings: one concentration: Guanosine 100 uM, NTR001 10 uM, Inosine 100 uM; FIG. 2
T3 construct: expressed in transfected cells; host or cells: HEK293
T3 sequence (O00206 24-839): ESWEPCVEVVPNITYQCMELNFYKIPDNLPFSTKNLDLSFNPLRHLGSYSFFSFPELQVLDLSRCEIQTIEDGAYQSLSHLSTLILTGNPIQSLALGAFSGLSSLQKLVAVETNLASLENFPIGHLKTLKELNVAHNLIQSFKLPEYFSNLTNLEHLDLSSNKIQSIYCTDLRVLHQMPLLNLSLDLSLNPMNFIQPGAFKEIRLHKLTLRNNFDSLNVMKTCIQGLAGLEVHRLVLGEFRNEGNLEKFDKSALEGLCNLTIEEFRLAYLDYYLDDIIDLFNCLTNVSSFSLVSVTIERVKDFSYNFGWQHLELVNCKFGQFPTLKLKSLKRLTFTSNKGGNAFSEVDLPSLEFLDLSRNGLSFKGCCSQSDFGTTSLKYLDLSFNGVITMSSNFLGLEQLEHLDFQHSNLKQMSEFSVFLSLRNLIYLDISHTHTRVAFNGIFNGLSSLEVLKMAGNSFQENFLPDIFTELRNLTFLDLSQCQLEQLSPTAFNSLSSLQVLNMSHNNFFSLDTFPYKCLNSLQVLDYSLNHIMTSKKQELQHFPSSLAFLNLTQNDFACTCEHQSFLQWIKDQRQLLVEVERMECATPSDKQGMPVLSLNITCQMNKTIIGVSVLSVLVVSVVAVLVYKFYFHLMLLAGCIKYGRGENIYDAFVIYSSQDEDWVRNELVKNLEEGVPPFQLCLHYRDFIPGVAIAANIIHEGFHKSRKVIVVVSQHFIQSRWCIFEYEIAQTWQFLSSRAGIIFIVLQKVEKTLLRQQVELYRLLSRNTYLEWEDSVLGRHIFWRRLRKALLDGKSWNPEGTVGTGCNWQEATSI
T3 sequence (Q9Y6Y9 17-160 partner limits assumed): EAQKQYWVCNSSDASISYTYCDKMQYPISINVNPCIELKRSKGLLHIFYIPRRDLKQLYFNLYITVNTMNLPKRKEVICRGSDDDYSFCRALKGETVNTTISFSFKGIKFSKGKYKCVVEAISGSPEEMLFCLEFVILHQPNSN
Experimental: as §1

human TLR9 = target: T4, human TLR9 (Homo sapiens, UniProt Q9NR96); experiment: TLR ligand screening, NF-κB SEAP reporter in HEK293 cells expressing TLR9; settings: one concentration: NTR001 10 uM, Inosine 100 uM; FIG. 2
T4 construct: expressed in transfected cells; host or cells: HEK293
T4 sequence (Q9NR96 26-1032): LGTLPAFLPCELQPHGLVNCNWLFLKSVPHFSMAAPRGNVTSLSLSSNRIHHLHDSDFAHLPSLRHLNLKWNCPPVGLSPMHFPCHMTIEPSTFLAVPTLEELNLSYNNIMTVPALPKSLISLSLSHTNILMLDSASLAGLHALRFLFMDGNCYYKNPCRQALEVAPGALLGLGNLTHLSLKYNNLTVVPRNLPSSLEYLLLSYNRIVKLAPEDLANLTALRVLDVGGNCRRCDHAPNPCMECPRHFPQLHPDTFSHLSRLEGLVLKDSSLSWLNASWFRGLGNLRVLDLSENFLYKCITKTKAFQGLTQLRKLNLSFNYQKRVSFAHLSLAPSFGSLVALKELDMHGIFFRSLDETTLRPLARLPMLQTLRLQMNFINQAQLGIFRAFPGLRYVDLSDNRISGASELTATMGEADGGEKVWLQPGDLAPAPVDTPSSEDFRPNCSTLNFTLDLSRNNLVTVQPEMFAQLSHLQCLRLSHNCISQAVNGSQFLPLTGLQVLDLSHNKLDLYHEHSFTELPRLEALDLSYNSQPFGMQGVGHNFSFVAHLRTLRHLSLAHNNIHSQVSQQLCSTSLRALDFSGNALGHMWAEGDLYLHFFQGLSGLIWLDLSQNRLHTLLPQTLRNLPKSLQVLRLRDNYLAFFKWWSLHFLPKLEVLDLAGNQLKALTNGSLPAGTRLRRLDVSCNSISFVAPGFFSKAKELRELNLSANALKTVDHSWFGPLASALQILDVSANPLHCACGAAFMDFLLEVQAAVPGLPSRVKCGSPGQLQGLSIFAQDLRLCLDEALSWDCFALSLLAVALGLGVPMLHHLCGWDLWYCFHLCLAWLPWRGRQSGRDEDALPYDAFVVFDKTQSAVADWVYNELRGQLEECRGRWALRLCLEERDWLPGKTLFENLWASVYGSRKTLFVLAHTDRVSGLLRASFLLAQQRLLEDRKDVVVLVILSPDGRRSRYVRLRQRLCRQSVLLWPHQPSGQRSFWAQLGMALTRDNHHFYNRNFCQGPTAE
Experimental: as §1

OC[C@H]1O[C@@H](n2cnc3c(O)ncnc32)[C@H](O)[C@@H]1O [Inosine]
do not exhibit a stimulatory effect: stimulatory effect on human TLR7 (NF-κB activation) (human TLR7) | stimulatory effect on human TLR2 (NF-κB activation) (human TLR2) | stimulatory effect on human TLR4 (NF-κB activation) (human TLR4) | stimulatory effect on human TLR9 (NF-κB activation) (human TLR9)

O=c1[nH]cnc2c([C@@H]3N[C@H](CO)[C@@H](O)[C@H]3O)c[nH]c12 [NTR001, 7-[(2S,3S,4R,5R)-3,4-dihydroxy-5-(hydroxymethyl)-2-pyrrolidinyl]-1,5-dihydro-4H-pyrrolo[3,2-d]pyrimidin-4-one]
do not exhibit a stimulatory effect: stimulatory effect on human TLR7 (NF-κB activation) (human TLR7) | stimulatory effect on human TLR2 (NF-κB activation) (human TLR2) | stimulatory effect on human TLR4 (NF-κB activation) (human TLR4) | stimulatory effect on human TLR9 (NF-κB activation) (human TLR9)
